From US20120122843A1, “Compounds and Their Use for Treatment of Amyloid Beta-Related Diseases” (ASTRAZENECA AB, priority 2010, published 2012) come the findings set out here.

Where only a bound is given, the exact number is not on record here.

The test system of one assay is Aβtotal. The assay can be described thus: Total Aβ release from HEK cells stably expressing APPswe (MSD, 6E10 and 4G8 antibodies). Format: cell-based. The settings on record: Homo sapiens, HEK293, 4-6 h incubation with test compound, total Aβ secreted to cell medium. The protocol: The level of activity of the compounds on Aβ formation was tested using the following method:
Compounds were diluted in 100% DMSO and stored at […] prior to use. Human Embryonic Kidney (HEK) cell line stably expressing APP with the Swedish mutation (APPswe) were cultured using Dulbecco's Modified Eagles medium (DMEM) supplied with […] glucose, Na-pyruvate and GlutaMAX with 10% FBS, 100 U/ml penicillin-streptomycin (PEST) respectively, 1× non-essential amino acids (NEAA), […] Hepes, 100 μg/ml Zeocine. Cells at about 80% confluence were washed with PBS, detached from culture flasks using 1× Trypsin/EDTA diluted in PBS, re-suspended in cell media and plated in 384-well poly-d-lysine coated cell culture plates at about 10000-15000 cells/well, in 25 μL cell media. Optionally, cryo-preserved cells (frozen and stored at −140° C. in 90% cell media and 10% DMSO) were thawed, washed and plated as above. Next the cells were incubated for 15-24 h at 37° C. and 5% CO2, after which cell medium was changed. Fresh medium containing test compound diluted ×200 from prepared compound plate was added to the cells before further incubation for 4-6 hours at 37° C. and 5% CO2. After incubation with test compound the amount of Aβ peptides, including Aβ42, Aβ40, Aβ39, Aβ38 and Aβ37, as well as total Aβ levels, secreted to cell medium was analyzed using the electrochemiluminescence assay technology from Meso Scale Discovery (MSD), in combination with specific antibodies raised against the different Aβ peptides. Aβ42, Aβ40 and Aβ38 antibodies were purchased from MSD and Aβ37 and Aβ39 were made in house. Total Aβ was measured using a combination of 6E10 and 4G8 anti Aβ antibodies from MSD. Potential cytotoxic effects of the compounds were usually assayed by measuring the ATP content (ViaLight) from cell lysate.

The subject of the next assay is Aβ42. Briefly: Aβ42 release from HEK cells stably expressing APPswe (MSD electrochemiluminescence). Format: cell-based, Human. Conditions: 4-6 h incubation with test compound, Aβ42 secreted to cell medium. The method in brief: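 HEK cells stably expressing APPswe, plated 15–24 h, then given compound in fresh medium (diluted ×200 from compound plate) for 4–6 h at 37 °C. Secreted Aβ in medium measured by MSD electrochemiluminescence; total Aβ via 6E10 plus 4G8 antibodies, Aβ42 via specific antibody. Cytotoxicity checked by ATP content of lysate.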

The test system of the next assay is Notch. The assay can be described thus: Release and translocation of Notch intracellular domain into the nucleus, HEK/AENotch cells (NICD immunostaining, ImageXpress). It is filed as cell-based, Human. The settings on record: 3 μM Lactacystin, 4-6 h incubation, nucleus/cytosol NICD fluorescence ratio. The procedure, abridged: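 HEK cells overexpressing a Notch1-ΔE-myc construct were plated for 15–24 h, then treated 4–6 h with compound (typically up to 25 μM, 0.5% DMSO) plus 3 μM Lactacystin. Fixed cells were immunostained for NICD, and the nuclear/cytosolic fluorescence ratio was imaged. Cytotoxicity was judged by nucleus area or cell number.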

Where [1] appears, read: Homo sapiens, HEK293, HEK cells expressing APPswe.

On to `COc1nc(Nc2ccc3c(n2)OC(CC(F)(F)F)CN(C)C3C)ccc1-c1cnn(C)c1` (single isomer, unassigned) [Example 33, N-(6-Methoxy-5-(1-methyl-1H-pyrazol-4-yl)pyridin-2-yl)-4,5-dimethyl-2-(2,2,2-trifluoroethyl)-2,3,4,5-tetrahydropyrido[3,2-f][1,4]oxazepin-8-amine], for which the IC50 (usually the concentration that inhibits the measured activity by half) was above 5000 nM with Aβtotal, 8 nM with Aβ42 (setting [1]) and above 25000 nM in the assay on Notch (Homo sapiens).

For `COc1nc(Nc2ccc3c(n2)OC(C2CC(F)(F)C2)CN(C)C3)ccc1-c1cnn(C)c1` (single isomer, unassigned) [Example 37, 2-(3,3-Difluorocyclobutyl)-N-(6-methoxy-5-(1-methyl-1H-pyrazol-4-yl)pyridin-2-yl)-4-methyl-2,3,4,5-tetrahydropyrido[3,2-f][1,4]oxazepin-8-amine], the values for the IC50 in the assay on Aβtotal, with Aβ42 (HEK cells expressing APPswe) and in the assay with Notch (Homo sapiens) were above 1000 nM, 4 nM and above 25000 nM, respectively.

In the case of `COc1nc(Nc2ccc3c(n2)OC(CC(F)(F)F)CN(C)C3)ccc1-c1cnn(C)c1` (single isomer, unassigned; (+)) [Example 4, (+)-N-(6-Methoxy-5-(1-methyl-1H-pyrazol-4-yl)pyridin-2-yl)-4-methyl-2-(2,2,2-trifluoroethyl)-2,3,4,5-tetrahydropyrido[3,2-f][1,4]oxazepin-8-amine], the IC50 is 512 nM in the assay with Aβtotal, 9 nM with Aβ42 (HEK cells expressing APPswe) and above 25000 nM with Notch (Homo sapiens).

`COc1nc(Nc2ccc3c(n2)OC(CCC(F)(F)F)CN(C)C3)ccc1-n1cnc(C)c1` (single isomer, unassigned; (+)) [Example 61, (+)-[6-Methoxy-5-(4-methyl-imidazol-1-yl)-pyridin-2-yl]-[6-methyl-8-(3,3,3-trifluoro-propyl)-5,6,7,8-tetrahydro-9-oxa-1,6-diaza-benzocyclohepten-2-yl]-amine]: the values for the IC50 in the assay with Aβtotal, with Aβ42 (setting [1]) and in the assay on Notch (Homo sapiens) were above 1000 nM, 3 nM and above 25000 nM, respectively.

`COc1nc(Nc2ccc3c(n2)OC(CC(CF)CF)CN(C)C3)ccc1-n1cnc(C)c1` (single isomer, unassigned; (+)) [Example 67, (+)-[8-(3-Fluoro-2-fluoromethyl-propyl)-6-methyl-5,6,7,8-tetrahydro-9-oxa-1,6-diaza-benzocyclohepten-2-yl]-[6-methoxy-5-(4-methyl-imidazol-1-yl)-pyridin-2-yl]-amine]: the IC50 with Aβtotal is above 25000 nM; with Aβ42 (setting [1]), 10 nM; in the assay on Notch, 6230 nM.

Take `COc1nc(Nc2ccc3c(n2)OC(c2nc(C)cs2)CN(C)C3)ccc1-n1cnc(C)c1` (stereo not drawn) [Example 12, N-(6-Methoxy-5-(4-methyl-1H-imidazol-1-yl)pyridin-2-yl)-4-methyl-2-(4-methylthiazol-2-yl)-2,3,4,5-tetrahydropyrido[3,2-f][1,4]oxazepin-8-amine]: the values for the IC50 with Aβtotal, in the assay on Aβ42 (setting [1]) and in the assay with Notch (Homo sapiens) were 1850 nM, 13 nM and above 25000 nM, respectively.

In the case of `COc1nc(Nc2ccc3c(n2)OC(CCC(F)(F)F)CN(C)C3)ccc1-c1cnn(C)c1` (stereo not drawn) [Example 27, [6-Methoxy-5-(1-methyl-1H-pyrazol-4-yl)-pyridin-2-yl]-[6-methyl-8-(3,3,3-trifluoro-propyl)-5,6,7,8-tetrahydro-9-oxa-1,6-diaza-benzocyclohepten-2-yl]-amine], the figures for the IC50 with Aβtotal, with Aβ42 (setting [1]) and in the assay with Notch (Homo sapiens) were 8720 nM, 12 nM and 16300 nM, respectively.

Take `COc1nc(Nc2ccc3c(n2)OC(CCC(F)(F)F)CN(C)C3)ccc1-n1cnc(C)c1` (stereo not drawn) [Example 28, [6-Methoxy-5-(4-methyl-imidazol-1-yl)-pyridin-2-yl]-[6-methyl-8-(3,3,3-trifluoro-propyl)-5,6,7,8-tetrahydro-9-oxa-1,6-diaza-benzocyclohepten-2-yl]-amine]: the IC50 is above 1000 nM with Aβtotal, 7 nM with Aβ42 (setting [1]) and above 25000 nM in the assay with Notch (Homo sapiens).

As to `COc1nc(Nc2ccc3c(n2)OC(CC(CF)CF)CN(C)C3)ccc1-c1cnn(C)c1` (stereo not drawn) [Example 31, [8-(3-Fluoro-2-fluoromethyl-propyl)-6-methyl-5,6,7,8-tetrahydro-9-oxa-1,6-diaza-benzocyclohepten-2-yl]-[6-methoxy-5-(1-methyl-1H-pyrazol-4-yl)-pyridin-2-yl]-amine], the values for the IC50 in the assay with Aβtotal, in the assay on Aβ42 (setting [1]) and with Notch (Homo sapiens) were 9470 nM, 22 nM and above 7900 nM, respectively.

Consider `COc1nc(Nc2ccc3c(n2)OC(CC(CF)CF)CN(C)C3)ccc1-n1cnc(C)c1` (stereo not drawn) [Example 32, [8-(3-Fluoro-2-fluoromethyl-propyl)-6-methyl-5,6,7,8-tetrahydro-9-oxa-1,6-diaza-benzocyclohepten-2-yl]-[6-methoxy-5-(4-methyl-imidazol-1-yl)-pyridin-2-yl]-amine], for which the IC50 is above 5000 nM in the assay on Aβtotal, 7 nM in the assay with Aβ42 (setting [1]) and above 7900 nM with Notch (Homo sapiens).

On to `COc1nc(Nc2ccc3c(n2)O[C@H](c2ccccc2)CN(C)C3)ccc1-c1cnc(C)o1` [Example 49, (2R)—N-[6-Methoxy-5-(2-methyloxazol-5-yl)-2-pyridyl]-4-methyl-2-phenyl-3,5-dihydro-2H-pyrido[3,2-f][1,4]oxazepin-8-amine], for which the figures for the IC50 in the assay on Aβtotal, in the assay on Aβ42 (setting [1]) and in the assay with Notch (Homo sapiens) were 5460 nM, 2 nM and 2170 nM, respectively.
